Reference: US5939403A, “Keratan sulfate oligosaccharide fraction and pharmaceutical containing the same” (Seikagaku Corporation, priority 1994, dated 1999)
Counter-ions that a name gives are not always drawn.

Experiments:
[1] = test system: neutrophile of guinea pig; experiment: Inhibition of active oxygen (O2^-) generation in FMLP-stimulated neutrophile; assay type: cell-based, female Hartley guinea pigs
Description: To female Hartley guinea pigs of five weeks old (purchased from Japan SLC), 20 ml of the 0.2% aqueous solution of glycogen (Type II; Oyster; Sigma) dissolved in saline which was previously sterilized with autoclave, was intraperitoneally administered. The guinea pigs were sacrificed by bleeding 16 hours after the administration, and 20 ml of the saline containing heparin at a concentration of 10 U/ml was intraperitoneally injected to recover the peritoneal exudate. Hereinafter all the operations were carried out under ice-water cooling condition except for incubation. The recovered exudate was centrifuged at 1,000 rpm for 10 minutes, the precipitate obtained was hemolyzed with purified water for 30 seconds, and returned into isotonicity with the Hanks' solution at double the concentration (not containing phenol red; Nissui Seiyaku), and further it was centrifuged at 1,000 rpm for 10 minutes. The precipitate obtained was suspended in the Hanks' solution and centrifuged and the operations were repeated once more to give the neutrophile.
The collected neutrophile of the guinea pigs was suspended in the Hanks' solution, the number of leukocyte in the suspension was determined by a cytometer (System K-2000; Toa Iyo Denshi Co.), and the suspension diluted with the Hanks' solution to 2×10^6 cells/ml was used in the determination as the cell suspension. After mixing 1 ml of the cell suspension and 10 μl of the purified keratan sulfate oligosaccharide (keratan sulfate tetrasaccharide (I), the keratan sulfate pentasaccharide (II), or the keratan sulfate disaccharide (III)) prepared in Example 1 described above, and the mixture was preincubated at 37° C. for an hour. […]
The supernatant obtained by the centrifugation was separated and the absorbance thereof was determined at 550 nm to estimate the quantity of reducing cytochrome c per 2×10^6 cells after the 10 minutes incubation. The quantity of reducing cytochrome c increases with the generation of active oxygen (O2^-). […]

allergic conjunctivitis = experiment: TDI-induced allergic conjunctivitis model, eye dropping; assay type: in vivo, female Hartley guinea pigs
Description: A variety of the keratan sulfate oligosaccharide was dropped in the eyes of the guinea pigs subjected to the induction of allergic conjunctivitis to examine the effect thereof.
Toluene diisocyanate (hereinafter referred to as TDI) was diluted with ethyl acetate to a concentration of 10%. To the bilateral vestibule of noses of 10 female Hartley guinea pigs of from about 900 to 1,000 g weight, the 10% TDI (10 μl/animal) obtained above was applied once a day for five days to prepare the TDI sensitization models. The PBS solution of the purified keratan sulfate tetrasaccharide (I) ([…]) which was prepared in Example 1 was dropped in the left eyes of the TDI sensitization models, while PBS was dropped in the right eyes as the control. The dose of dropping was one drop (48+4.6 μl (S.D.)) each from the eye dropper. After 10 minutes, 6.5 μl of 10% TDI was dropped to the both eyes to induce conjunctivitis. After five minutes standing, furthermore, the PBS solution of the keratan sulfate tetrasaccharide (I) ([…]) was dropped in the left eyes, and PBS was dropped in the right eyes. After 15 minutes, observation of the both eyes were carried out. The degree of conjunctivitis was evaluated regarding three items of hyperemia, edema and lacrimation into four grades such as point 0, +1, +2 and +3. In the figure, * represents that it has the significant difference with p<0.05 (wherein "p" means a level of significance by the .chi.^2 test).
The PBS solution of the purified keratan sulfate disaccharide (III), the keratan sulfate tetrasaccharide (I), and the keratan sulfate pentasaccharide (II) (6.0 mg/ml, respectively)which were prepared in Example 1 described above as the test substances were dropped, respectively, in the left eyes of the TDI sensitization models of 10 animals a group each which were prepared in the same manner as in (1) described above, and PBS was dropped in the right eyes as the control. The degree of conjunctivitis was evaluated in the same manner as in (1) described above. In the figure, * represents that it has the significant difference with p<0.05 (wherein "p" means a level of significance by the .chi.^2 test).
The PBS solution containing the purified keratan sulfate tetrasaccharide (I) which was prepared in Example 1 described above, at varieties of concentrations (6 mg/ml, 3 mg/ml, 1.5 mg/ml or 0.75 mg/ml) as the test substance, were dropped, respectively, in the left eyes of the TDI sensitization models of 10 animals a group each which were prepared in the same manner as in (1) described above, and PBS was dropped in the right eyes as the control. The degree of conjunctivitis was evaluated in the same manner as in (1) described above. In the figure, * represents that it has the significant differnce with p<0.05 (wherein "p" means a level of significance by the .chi.^2 test).

[2] = 6.0 mg/ml eye drop, comparison of oligosaccharides

Row | SMILES | inhibitory function for generation of active oxygen (O2^-) (FIG. 10) [1] | degree of conjunctivitis: hyperemia, edema and lacrimation (FIG. 12) (allergic conjunctivitis; [2]) | inhibition of generation of active oxygen (O2^-) (FIG. 10) ([1]; 0.01, 0.1 and 1.0 mg/ml) | degree of conjunctivitis: edema (FIG. 12) (allergic conjunctivitis; 6.0 mg/ml eye drop, comparison of oligosaccharides, p<0.05) | degree of conjunctivitis: edema (FIG. 13) (allergic conjunctivitis; 6 mg/ml, 3 mg/ml, and 1.5 mg/ml eye drop, p<0.05) | degree of conjunctivitis: hyperemia, edema and lacrimation (FIG. 11) (allergic conjunctivitis; 100 mg/ml eye drop) | degree of conjunctivitis: edema (FIG. 11) (allergic conjunctivitis; 100 mg/ml eye drop, p<0.05) | degree of conjunctivitis: hyperemia, edema and lacrimation (FIG. 13) (allergic conjunctivitis; 6, 3, 1.5 and 0.75 mg/ml eye drop)
1 | CC(=O)N[C@H]1C(O)O[C@H](COS(=O)(=O)O)[C@@H](O[C@@H]2O[C@H](COS(=O)(=O)O)[C@H](O)[C@H](O)[C@H]2O)[C@@H]1O (stereo partly drawn) [keratan sulfate disaccharide (III), Gal(6S)β1-4GlcNAc(6S)] | slightly observed | tended to show inhibition in all the items |  |  |  |  |  | 
2 | CC(=O)N[C@H]1[C@H](O[C@H]2[C@@H](O)[C@@H](COS(=O)(=O)O)O[C@@H](O[C@H]3[C@H](O)[C@@H](NC(C)=O)C(O)O[C@@H]3COS(=O)(=O)O)[C@@H]2O)O[C@H](COS(=O)(=O)O)[C@@H](O[C@@H]2O[C@H](COS(=O)(=O)O)[C@H](O)[C@H](O)[C@H]2O)[C@@H]1O (stereo partly drawn) [keratan sulfate tetrasaccharide (I), Gal(6S)β1-4GlcNAc(6S)β1-3Gal(6S)β1-4GlcNAc(6S)] |  | tended to show inhibition in all the items | remarkably inhibits the generation of active oxygen (O2^-) depending upon the concentration | shows a significant inhibitory effect on edema | showed a significant inhibitory effect on edema | tended to show inhibition in all the items | significantly inhibited edema compared with the control | tended to show inhibition in all the items
